Laboratory results reported in ChEMBL document CHEMBL3621097, “A step forward in the sigma enigma: a role for chirality in the sigma1 receptorligand interaction?” (Medchemcomm, 2015).
The source made the active and inactive calls. The rule behind the calls is not given here.

Assays:
[1] = Displacement of [3H]-DTG from sigma-2 receptor in Sprague-Dawley rat liver membranes after 120 mins by scintillation counting analysis; format: cell membranes, Membrane
[2] = biological target: Sigma non-opioid intracellular receptor 1 (Cavia porcellus, UniProt Q60492); assay: Displacement of [3H](+)-pentazocine from sigma-1 receptor in guinea pig brain cortex after 120 mins by scintillation counting analysis
Chain of Sigma non-opioid intracellular receptor 1 (Q60492 whole entry): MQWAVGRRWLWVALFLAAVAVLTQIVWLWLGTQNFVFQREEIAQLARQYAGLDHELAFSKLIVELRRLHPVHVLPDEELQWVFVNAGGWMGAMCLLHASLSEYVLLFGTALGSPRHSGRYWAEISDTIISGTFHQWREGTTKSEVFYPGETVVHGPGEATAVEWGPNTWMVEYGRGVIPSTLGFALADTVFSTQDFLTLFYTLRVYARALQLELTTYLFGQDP

[3] = biological target: Sigma non-opioid intracellular receptor 1 (Rattus norvegicus) (UniProt Q9R0C9); assay: Agonist activity at sigma 1 receptor in rat PC12 cells assessed as potentiation of NGF-induced neurite outgrowth at 2.5 to 5 uM after 5 days by phase contrast microscopic analysis in presence of sigma 1 antagonist NE-100; format: cell-based; settings: PC-12
Chain of Sigma non-opioid intracellular receptor 1 (Rattus norvegicus) (Q9R0C9 whole entry): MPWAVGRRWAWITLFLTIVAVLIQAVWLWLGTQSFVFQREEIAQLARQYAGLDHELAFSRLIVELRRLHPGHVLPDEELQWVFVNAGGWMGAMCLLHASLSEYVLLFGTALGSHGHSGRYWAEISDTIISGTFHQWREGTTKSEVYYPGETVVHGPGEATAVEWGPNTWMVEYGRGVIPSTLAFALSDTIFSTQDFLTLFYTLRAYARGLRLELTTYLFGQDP

[4] = Selectivity ratio of Ki for sigma-2 receptor in Sprague-Dawley rat liver membrane to Ki for sigma-1 receptor in guinea pig brain cortex; format: cell membranes
[5] = biological target: Sigma non-opioid intracellular receptor 1 (Rattus norvegicus) (UniProt Q9R0C9); assay: Agonist activity at sigma 1 receptor in rat PC12 cells assessed as potentiation of NGF-induced neurite outgrowth at 2.5 to 5 uM after 5 days by phase contrast microscopic analysis; format: cell-based; settings: PC-12
[6] = biological target: Sigma non-opioid intracellular receptor 1 (Rattus norvegicus) (UniProt Q9R0C9); assay: Agonist activity at sigma 1 receptor in rat PC12 cells assessed as potentiation of NGF-induced neurite outgrowth at 2.5 to 5 uM after 5 days by phase contrast microscopic analysis relative to NGF-treated control; format: cell-based; settings: PC-12

Row | Structure (SMILES) | Ki [1] | Ki [2] | Activity [3] | Ratio Ki [4] | Activity [5] | Activity [6]
1 | C[C@](O)(CCN1CCCCC1)c1ccc(-c2ccccc2)cc1 | 1800 nM | 4.7 nM | inactive | 382 | Active | –
2 | COc1ccc2cc([C@](C)(O)CCN(C)C)ccc2c1 | 133 nM | 51 nM | – | – | – | –
3 | C[C@H]1N(C)CC[C@]1(O)c1ccc2ccccc2c1 | 94 nM | 86 nM | – | – | – | –
4 | CC(CCN1CCCCC1)c1ccc(-c2ccccc2)cc1 (racemic) | 103 nM | 0.9 nM | – | – | – | –
5 | COc1ccc2cc([C@@](C)(O)CCN(C)C)ccc2c1 | 1100 nM | 25 nM | – | – | – | –
6 | CC(O)(CCN1CCCCC1)c1ccc(-c2ccccc2)cc1 (racemic) | 34.6 nM | 6.57 nM | inactive | – | Active | –
7 | COc1ccc2cc([C@@]3(O)CCN(C)[C@@H]3C)ccc2c1 | 1200 nM | 1500 nM | – | – | – | –
8 | CC1N(C)CCC1(O)c1ccc2ccccc2c1 (racemic) | 366 nM | 65 nM | – | – | – | –
9 | CN(C)CC[C@](C)(O)c1ccc2ccccc2c1 | 75 nM | 63 nM | – | – | – | –
10 | C[C@@H](CCN1CCCCC1)c1ccc(-c2ccccc2)cc1 | 98 nM | 1.9 nM | – | – | – | –
11 | C[C@@](O)(CCN1CCCCC1)c1ccc(-c2ccccc2)cc1 | 4300 nM | 39 nM | – | – | – | inactive
12 | C[C@@H]1N(C)CC[C@@]1(O)c1ccc2ccccc2c1 | 432 nM | 26 nM | – | – | – | –
13 | C[C@H](CCN1CCCCC1)c1ccc(-c2ccccc2)cc1 | 45 nM | 1.8 nM | – | – | – | –
14 | COc1ccc2cc(C(C)(O)CCN(C)C)ccc2c1 (racemic) | 97 nM | 41 nM | – | – | – | –
15 | CN(C)CCC(C)(O)c1ccc2ccccc2c1 (racemic) | 66 nM | 77 nM | – | – | – | –
16 | CN(C)CC[C@@](C)(O)c1ccc2ccccc2c1 | 651 nM | 205 nM | – | – | – | –
17 | COc1ccc2cc([C@]3(O)CCN(C)[C@H]3C)ccc2c1 | 1900 nM | 1200 nM | – | – | – | –
18 | COc1ccc2cc(C3(O)CCN(C)C3C)ccc2c1 (configuration not stated) | 1500 nM | 1900 nM | – | – | – | –
